Values of other authors as cited in patent US8318201B2, “Method of stabilizing diarylvinylene compound” (Kyowa Hakko Kirin Co., Ltd., priority 2003, dated 2012).

Conditions: Bioorg. Med. Chem. Lett., vol. 7, p. 2349-2352 (1997); particularly unstable in a state of a solution

CCn1c(=O)c2c(nc(/C=C/c3ccc(OC)c(OC)c3)n2C)n(CC)c1=O [Compound 1, (E)-8-(3,4-dimethoxystyryl)-1,3-diethyl-7-methyl-3,7-dihydro-1H-purine-2,6-dione]
stability under irradiation of light (isomerization at the vinylene moiety): unstable particularly under irradiation of light
